Source: patent US20010049372A1, “Antiviral nucleoside analogues” (BioChem Pharma Inc., priority 1998, published 2001)
Where two headings read alike, the source gives them in different places.

Assays:
[1] = Cellular toxicity by [3H]-thymidine uptake; type: cell-based, human; details: human, Table 14, PHA-stimulated PBMCs, read-out: CC50 (μM) [^3H]TTP incorporation in: PBMC
Description: (§1) Cellular toxicity was assessed by [^3H]thymidine uptake (de Muys et al. 1999) and WST-1 staining. In the [^3H]thymidine uptake experiments, Molt-4, HT1080, DU-145, HepG2 and HSF, were plated at a concentration of 1-2×10^3 cells per well (96 well plates). PHA-stimulated PBMCs were cultured at a concentration of 4×10^4 cells per well. Following a 24 hr pre-incubation period, test compounds (10^−4 M to 10^−10 M) were added and the cells were incubated for an additional 72 hrs. [^3H]thymidine was added during the final 18 hr incubation period. The cells were then washed once with PBS, treated with trypsin if the cells were adherent, and resuspended in water (hypotonic lysing of cells). The cellular extract was applied directly to a Tomtec Harvester 96. The 50% cytotoxic concentration (CC50) was determined by comparing the radioactive counts per minute obtained from drug-tested samples to those obtained from the control (untreated) cells.

[2] = system: Zidovudine^S/Lamivudine^S (7) clinical HIV-1 isolates; test: Clinical HIV-1 isolates (RT activity); type: cell-based; details: Human immunodeficiency virus 1, Zidovudine^S/Lamivudine^S (7 isolates)
Description: (§2) ANTIVIRAL ASSAYS. The anti-HIV-1 activity of the compound A (−) were assessed by employing HIV-1IIIB in a variety of cell types as previously described (Gu et al., 1992, 1994, 1999; Rando et al., 1995; Salomon et al., 1994). Briefly, cells were incubated with virus at a multiplicity of infection (MOI) of 0.005 for T cell assays and an MOI of 0.5 for monocytic cell assays for 3 hrs. Unbound virus was then removed by washing the cells, followed by seeding the cells into a 96-well plate. The infected cells were cultured in the presence of a serial concentrations of the test compound for 5-7 days. The anti-HIV-1 efficacy was determined by testing for HIV-1 RT activity or p24 level in the cell culture supernatants. All assays were performed in duplicate. Zidovudine and/or lamivudine were used as controls in each experiment.
(§3) Clinical strains were isolated from PBMCs of HIV-1 infected individuals through co-culture with PBMCs from normal dornors. To determine the RT genotype of the HIV-1 clinical isolates, the proviral DNA was extracted from infected CD4^+ T-cells or PBMCs and the complete RT coding regions were amplified by PCR as previously reported (Gu et al 1992). The PCR product was purified and then directly sequenced using primer RTS (5′-CCAAAAGTTAAACAATGGC-3′) which is located at the 5′ portion of the RT coding region (nucleotide 2603-2621 of HXB2-D coordinates). Antiviral activity was evaluated as described in example 10.

[3] = system: Zidovudine^R/Lamivudine^R (3) clinical HIV-1 isolates (second group of Table 7); test: Clinical HIV-1 isolates (RT activity); type: cell-based; details: Human immunodeficiency virus 1, Zidovudine^R/Lamivudine^R (3 isolates)
Description: as §2, §3

[4] = system: Zidovudine^R/Lamivudine^R (2) clinical HIV-1 isolates; test: Clinical HIV-1 isolates (RT activity); type: cell-based; details: Human immunodeficiency virus 1, Zidovudine^R/Lamivudine^R (2 isolates)
Description: as §2, §3

[5] = Cellular toxicity by [3H]-thymidine uptake; type: cell-based; details: human
Description: The cellular toxicity of the compounds were assessed on various cells using [^3H]-thymidine uptake. Various cells, including Molt-4, HT1080, DU-145, HepG-2 and HSF, were plated at a concentration of 1-2×10^3 cells per well (96 well plates). After a 24 hr incubation period, 10-fold serial diluted compounds (b 10^−4 M to 10^−10 M) were added to the culture medium and the cells were further incubated for 72 hrs. [^3H]-thymidine was added during the final 18 hr incubation period. After incubation with the [^3H]-thymidine, the cells were washed once with PBS, treated with trypsin if the cells were adherent, and then resuspended in water (hypotonic lysing of cells). The cellular extract was applied directly to a Tomtec Harvester 96. Using this instrument the extracted DNA is adsorbed onto filters, washed and the incorporated [^3H]-thymidine is then counted. The 50% cytotoxic concentration (CC50) was determined by comparing the radioactive counts per minute of the samples in the presence of the compounds against the control. The cellular toxicity of the compounds was also tested by WST-1 staining through assessing proliferation of MT-2, H9, Jurkat, U937, and CBMCs. The established cell lines were cultured in RPMI medium in 96-well plates at a density of 5×10^4 cells/well while CBMCs were plated at a concentration of 0.5×10^6/well. A 10-fold serial diluted (10^−4-10^−7 M) compound was added at day zero. At day 4, the cells were passaged by changing half medium containing appropriately diluted compound. The cell activities were assessed at day 7 using the WST-1 reagent (Boehringer Mannheim) following the protocol provided by the supplier.
as §1

HXB2-D (wt) = test: Recombinant HIV-1 variants (RT activity); type: cell-based; details: Human immunodeficiency virus 1, HXB2
Description: as §2
Recombinant HIV-1 variants were prepared by introducing the designed mutations into HXB2-D by site-directed mutagenesis as described (Gu et al. 1992, 1994). The virus stocks were prepared by transfecting MT-4 cells with infectious viral DNA constructs. Antiviral activity of the compound A (−) was evaluated as described in example 10.

CCR19 (Lamivudine^R) = test: Drug-resistant clinical isolates in PBMCs (p24); type: cell-based, HIV-1; details: Human immunodeficiency virus 1, PBMC
Description: as §2, §3

105/A (wt) = test: Drug-resistant clinical isolates in PBMCs (p24); type: cell-based, HIV-1; details: Human immunodeficiency virus 1, PBMC
Description: as §2, §3

CCR18 (Lamivudine^R) = test: Drug-resistant clinical isolates in PBMCs (p24); type: cell-based, HIV-1; details: Human immunodeficiency virus 1, PBMC
Description: as §2, §3

105/F (zidovudine^R) = test: Drug-resistant clinical isolates in PBMCs (p24); type: cell-based, HIV-1; details: Human immunodeficiency virus 1, PBMC
Description: as §2, §3

CCR15 (Lamivudine^R) = test: Drug-resistant clinical isolates in PBMCs (p24); type: cell-based, HIV-1; details: Human immunodeficiency virus 1, PBMC
Description: as §2, §3

[6] = read-out: EC50 (μM), mean EC50 values
[7] = read-out: EC50 (μM), ranges of EC50s of the isolates in the same group
[8] = second group (r9), read-out: EC50 (μM), mean EC50 values
[9] = second group (r10), read-out: EC50 (μM), ranges of EC50s of the isolates in the same group
[10] = Table 4, read-out: CC50 (μM) [^3H-]TTP incorporation in: HSF
[11] = Table 4, read-out: CC50 (μM) [^3H-]TTP incorporation in: Molt-4

Row | Compound | CC50 at 72 h [1] [µM] | EC50 [2, 6] [µM] | EC50 [2, 7] [µM] | EC50 [3, 8] [µM] | EC50 [3, 9] [µM] | EC50 [4] [µM] | CC50 at 72 h [5, 10] [µM] | CC50 at 72 h [5, 11] [µM] | EC50 (HXB2-D (wt)) [nM] | IC50 (CCR19 (Lamivudine^R)) [nM] | IC50 (105/A (wt)) [nM] | IC50 (CCR18 (Lamivudine^R)) [nM] | IC50 (105/F (zidovudine^R)) [nM] | IC50 (CCR15 (Lamivudine^R)) [nM] | also measured
1 | Cc1cn([C@H]2C[C@H](N=[N+]=[N-])[C@@H](CO)O2)c(=O)[nH]c1=O [Zidovudine, zidovudine] | 9 | 0.021 | 0.0034 to 0.051 | 0.012 | 0.0026 to 0.019 | 1.15 | > 10 | 3 | 23 | 3 | 4.3 | 4.2 | 230 | 3 | CC50 at 72 h ([5]; Table 4, read-out: CC50 (μM) [^3H-]TTP incorporation in: HT1080): 5 µM; CC50 at 72 h ([5]; Table 4, read-out: CC50 (μM) [^3H-]TTP incorporation in: HepG2): 3 µM; CC50 at 72 h ([5]; Table 4, read-out: CC50 (μM) [^3H-]TTP incorporation in: U-145): > 10 µM
2 | Nc1nc(NC2CC2)c2ncn([C@H]3CO[C@@H](CO)O3)c2n1 [Compound A (-), (−)-(2R,4R)-2-hydroxymethyl-4-(2′-amino-6′-cyclopropylamino-purine-9′-yl)-1,3-dioxolane] | 286 | 0.15 | 0.032 to 0.31 | 0.38 | 0.13 to 0.51 | 0.33 |  |  | 530 | 1600 | 600 | 1300 | 840 | 300 | CC50 at 72 h ([5]; DU-145 cells, Table 14, read-out: CC50 (μM) [^3H]TTP incorporation in: U145): > 500 µM; CC50 at 72 h ([5]; HSF cells, Table 14, read-out: CC50 (μM) [^3H]TTP incorporation in: HSF): 414 µM; CC50 at 72 h ([5]; HT1080 cells, Table 14, read-out: CC50 (μM) [^3H]TTP incorporation in: HT800): > 500 µM; CC50 at 72 h ([5]; HepG2 cells, Table 14, read-out: CC50 (μM) [^3H]TTP incorporation in: HepG2): > 500 µM; CC50 at 72 h ([5]; Molt-4 cells, Table 14, read-out: CC50 (μM) [^3H]TTP incorporation in: Molt4): > 500 µM
3 | Nc1ccn([C@@H]2CS[C@H](CO)O2)c(=O)n1 [Lamivudine, lamivudine] | > 500 | 0.23 | 0.028 to 0.69 |  | ≥ 5.1 | 4.1 | 400 | > 100 | 350 | 95000 | 65 | 300000 | 170 | 95000 | CC50 at 72 h ([5]; Table 14, read-out: CC50 (μM) [^3H]TTP incorporation in: HT800): > 500 µM; CC50 at 72 h ([5]; Table 14, read-out: CC50 (μM) [^3H]TTP incorporation in: HepG2): > 100 µM; CC50 at 72 h ([5]; Table 14, read-out: CC50 (μM) [^3H]TTP incorporation in: U145): > 500 µM
